# From patent US11919907B2, “Deuterated JAK inhibitor and uses thereof” (Sun Pharmaceutical Industries, Inc., priority 2020, dated 2024)
# Where two headings read alike, the source gives them in different places.
# Assays:
# [1] = molecular target: T1, kinase domain of human recombinant JAK1 (Homo sapiens, UniProt P23458); test: JAK enzyme biochemical assay (Eurofins CEREP), JAK1; details: ATP at Km, 100 nM substrate peptide, 60 minutes, duplicate
# T1 construct: using the kinase domains of human recombinant JAK1, JAK2, JAK3 and TYK2
# T1 sequence (P23458 875-1153 limits assumed): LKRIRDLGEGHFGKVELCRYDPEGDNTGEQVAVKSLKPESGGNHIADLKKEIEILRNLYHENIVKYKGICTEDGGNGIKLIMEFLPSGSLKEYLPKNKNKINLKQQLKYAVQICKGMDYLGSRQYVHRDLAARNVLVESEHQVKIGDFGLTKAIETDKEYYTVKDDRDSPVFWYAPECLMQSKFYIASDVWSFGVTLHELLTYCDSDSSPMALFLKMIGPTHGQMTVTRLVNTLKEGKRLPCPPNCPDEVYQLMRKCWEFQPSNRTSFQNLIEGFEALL
# Description: (§1) JAK enzyme biochemical assays were performed at Eurofins CEREP, France using the kinase domains of human recombinant JAK1, JAK2, JAK3 and TYK2. Each enzyme reaction was carried out with Compound 10 (supplied by Concert Pharmaceuticals) or control, JAK enzyme, 100 nM substrate peptide (LANCE® Ultra U-light JAK-1 peptide) and adenosine triphosphate (ATP; concentration at Km) for 60 minutes. Test compounds were dissolved in DMSO and tested in duplicate. It can be seen that Compound 10 had significant potency for inhibition of JAK enzymes.
# [2] = molecular target: T2, kinase domain of human recombinant JAK2 (Homo sapiens, UniProt O60674); test: JAK enzyme biochemical assay (Eurofins CEREP), JAK2; details: ATP at Km, 100 nM substrate peptide, 60 minutes, duplicate
# T2 construct: using the kinase domains of human recombinant JAK1, JAK2, JAK3 and TYK2
# T2 sequence (O60674 849-1124 limits assumed): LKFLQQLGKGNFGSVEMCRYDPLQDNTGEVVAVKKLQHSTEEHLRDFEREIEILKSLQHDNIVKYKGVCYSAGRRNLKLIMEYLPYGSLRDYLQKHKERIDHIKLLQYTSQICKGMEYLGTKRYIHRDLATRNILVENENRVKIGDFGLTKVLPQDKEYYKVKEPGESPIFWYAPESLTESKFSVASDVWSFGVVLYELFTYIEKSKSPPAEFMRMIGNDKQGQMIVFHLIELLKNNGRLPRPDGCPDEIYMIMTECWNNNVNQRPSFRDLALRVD
# Description: as §1
# [3] = molecular target: T3, kinase domain of human recombinant JAK3 (Homo sapiens, UniProt P52333); test: JAK enzyme biochemical assay (Eurofins CEREP), JAK3; details: ATP at Km, 100 nM substrate peptide, 60 minutes, duplicate
# T3 construct: using the kinase domains of human recombinant JAK1, JAK2, JAK3 and TYK2
# T3 sequence (P52333 822-1111 limits assumed): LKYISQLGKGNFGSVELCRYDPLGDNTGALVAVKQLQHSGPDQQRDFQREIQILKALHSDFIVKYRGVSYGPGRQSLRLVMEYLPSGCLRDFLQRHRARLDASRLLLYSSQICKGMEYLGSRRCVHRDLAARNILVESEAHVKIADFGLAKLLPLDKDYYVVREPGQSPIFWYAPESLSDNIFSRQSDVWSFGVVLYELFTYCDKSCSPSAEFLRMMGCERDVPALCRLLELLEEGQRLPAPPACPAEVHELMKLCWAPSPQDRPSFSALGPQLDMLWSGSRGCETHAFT
# Description: as §1
# [4] = molecular target: T4, kinase domain of human recombinant TYK2 (Homo sapiens, UniProt P29597); test: JAK enzyme biochemical assay (Eurofins CEREP), TYK2; details: ATP at Km, 100 nM substrate peptide, 60 minutes, duplicate
# T4 construct: using the kinase domains of human recombinant JAK1, JAK2, JAK3 and TYK2
# T4 sequence (P29597 897-1176 limits assumed): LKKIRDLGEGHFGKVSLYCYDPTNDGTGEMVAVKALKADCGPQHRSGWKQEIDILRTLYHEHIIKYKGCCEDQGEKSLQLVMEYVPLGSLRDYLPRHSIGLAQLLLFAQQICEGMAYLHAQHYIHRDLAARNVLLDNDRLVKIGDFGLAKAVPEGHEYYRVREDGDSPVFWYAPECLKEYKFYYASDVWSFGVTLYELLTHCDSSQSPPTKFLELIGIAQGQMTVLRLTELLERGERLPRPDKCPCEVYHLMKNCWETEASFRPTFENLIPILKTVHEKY
# Description: as §1
# [5] = Metabolic stability using human liver microsomes; format: in vitro ADME; details: for half-life at 0.25 μM: human
# Description: Materials: Human liver microsomes (20 mg/mL) were obtained from Xenotech, LLC (Lenexa, Kans.). β-nicotinamide adenine dinucleotide phosphate, reduced form (NADPH), magnesium chloride (MgCl2), and dimethyl sulfoxide (DMSO) were purchased from Sigma-Aldrich. Compound 10 and non-deuterated Compound 50 as test compounds were supplied by Concert Pharmaceuticals:
# Determination of Metabolic Stability: 7.5 mM stock solutions of test compounds were prepared in DMSO. The 7.5 mM stock solutions were diluted to 12.5 μM in acetonitrile (ACN). The human liver microsomes were diluted in 0.1 M potassium phosphate buffer, pH 7.4, containing 3 mM MgCl2. The diluted microsomes were added to wells of a 96-well deep-well polypropylene plate in triplicate. A 10 μL aliquot of the 12.5 μM test compound was added to the microsomes and the mixture was pre-warmed for 10 minutes. Reactions were initiated by addition of pre-warmed NADPH solution. The final reaction volume was 0.5 mL and contained […] human liver microsomes, 0.25 μM test compound, and 2 mM NADPH in 0.1 M potassium phosphate buffer, pH 7.4, and 3 mM MgCl2. The reaction mixtures were incubated at 37° C., and 50 μL aliquots were removed at 0, 10, 20, 30, 45, and 60 minutes and added to shallow-well 96-well plates which contained 50 μL of ice-cold ACN with internal standard to stop the reactions. The plates were stored at 4° C. for 20 minutes after which 100 μL of water was added to the wells of the plate before centrifugation to pellet precipitated proteins. Supernatants were transferred to another 96-well plate and analyzed for amounts of parent remaining by LC-MS/MS using an Applied Bio-systems mass spectrometer.
# Data analysis: The in vitro t1/2s for test compounds were calculated from the slopes of the linear regression of % parent remaining (ln) vs incubation time relationship. in vitro t1/2=0.693/k k=−[slope of linear regression of % parent remaining(ln) vs incubation time] Data analysis was performed using Microsoft Excel Software.
# [6] = pH 7.4, 5 mg/mL human liver microsomes, 0.25 μM test compound, 2 mM NADPH, 37° C., experiment 2498, read-out: t1/2 EXP# 2498
# [7] = pH 7.4, 5 mg/mL human liver microsomes, 0.25 μM test compound, 2 mM NADPH, 37° C., experiment 2500, read-out: t1/2 EXP# 2500
# [8] = pH 7.4, 5 mg/mL human liver microsomes, 0.25 μM test compound, 2 mM NADPH, 37° C., experiment 2501, read-out: t1/2 EXP# 2501
# [9] = pH 7.4, human liver microsomes, average of EXP# 2498, 2500, 2501, read-out: t1/2 Average
Compound,IC50 [1] [µM],IC50 [2] [µM],IC50 [3] [µM],IC50 [4] [µM],"Average % diff. in t1/2 (longer half-life than non-deuterated Compound 50) ([5]; Compound 10 versus Compound 50, average t1/2) [%]","half-life at 0.25 μM [5, 6] [h]","half-life at 0.25 μM [5, 7] [h]","half-life at 0.25 μM [5, 8] [h]","half-life at 0.25 μM [5, 9] [h]"
[2H]C1([2H])C([C@@H](CC(N)=O)n2cc(-c3ncnc4[nH]ccc34)cn2)C([2H])([2H])C([2H])([2H])C1([2H])[2H] [Compound 10],0.0639,0.034,0.226,0.368,176,1.6,4.5,4.97,3.68
"NC(=O)C[C@H](C1CCCC1)n1cc(-c2ncnc3[nH]ccc23)cn1 [Compound 50, reference compound]",,,,,,0.822,1.33,1.87,1.33
